Data: US5436229A, “Bisulfite adducts of arginine aldehydes” (Eli Lilly and Company, priority 1994, dated 1995)

Columns and labels:
Assay type in all cases: biochemical
[1] = target: human thrombin (Homo sapiens, UniProt P00734); test: Thrombin amidase inhibition (Kass), chromogenic substrate
Experimental: The assay is carried out by mixing 50 μl buffer (0.03M Tris, 0.15M NaCl, pH 7.4) with 25 μl of human thrombin solution (purified human thrombin, Enzyme Research Laboratories, South Bend, Ind., at 8 NIH units/ml) and 25 μl of test compound in a solvent (50% aqueous methanol (v:v)). Then 150 μl of an aqueous solution of the chromogenic substate (at 0.25 mg/ml) are added and the rates of hydrolysis of the substrate are measured by monitoring the reactions at 405 nm for the release of p-nitroaniline. Standard curves are constructed by plotting free thrombin concentration against hydrolysis rate. […] The amount of free inhibitor in each assay is calculated by subtracting the number of moles of bound thrombin from the number of moles of added inhibitor (test compound).
The Kass value is the hypothetical equilibrium constant for the reaction between thrombin and the test compound (I) . [formula]
Kass is calculated for a range of concentrations of test compounds and the mean value reported in units of liter per mole.

[2] = target: T1, factor Xa (Homo sapiens, UniProt P00742); test: Serine protease inhibition (Kass), factor Xa
T1 construct: Human factors X, Xa, IXa, XIa, and XIIa are purchased from Enzyme Research Laboratories; purchased Enzyme Research Laboratories, South Bend, Ind
Experimental: (§1) By substantially following the procedures described above for human thrombin, and using other human blood coagulation system serine proteases and using fibrinolytic system serine proteases, with the appropriate chromogenic substrates, identified below, the selectivity of the compounds of the present invention with respect to the coagulation factor serine proteases and to the fibronolytic serine proteases are evaluated as well as their substantial lack of interference with human plasma clot fibrinolysis.
(§2) Human factors X, Xa, IXa, XIa, and XIIa are purchased from Enzyme Research Laboratories, South Bend, Ind.; human urokinase from Leo Pharmaceuticals, Denmark; and recombinant activated Protein C (aPC) is prepared at Eli Lilly and Co. substantially according to U.S. Pat. No. 4,981,952 incorporated by reference herein in its entirety. Chromogenic substrates: N-Benzoyl-Ile-Glu-Gly-Arg-p-nitroanilide (for factor Xa); N-Cbz-D-Arg-Gly-Arg-p-nitroanilide (for factor IXa assay as the factor Xa substrate); Pyroglutamyl-Pro-Arg-p-nitroanilide (for Factor XIa and for aPC); H-D-Pro-Phe-Arg-p-nitroanilide (for factor XIIa); and Pyroglutamyl-Gly-Arg-p-nitroanilide (for urokinase); are purchased from KabiVitrum, Stockholm, Sweden, or from Midwest Biotech, Fishers, Ind. Bovine trypsin is purchased from Worthington Biochemicals, Freehold, N.J., and human plasma kallikrein from Kabi Vitrum, Stockholm, Sweden. Chromogenic substrate H-D-Pro-Phe-Arg-p-nitroanilide for plasma kallikrein is purchased from Kabi Vitrum, Stockholm, Sweden. N-Benzoyl-Phe-Val-Arg-p-nitroanilide, the substrate for human thrombin and for trypsin, is synthesized according to procedures described above for the compounds of the present invention, using known methods of peptide coupling from commercially available reactants, or purchaed from Midwest Biotech, Fishers, Ind.

[3] = target: T2, Bovine trypsin (Bos taurus, UniProt P00760); test: Serine protease inhibition (Kass), trypsin
T2 construct: Bovine trypsin is purchased from Worthington Biochemicals; purchased Worthington Biochemicals, Freehold, N.J
T2 sequence (P00760 24-246): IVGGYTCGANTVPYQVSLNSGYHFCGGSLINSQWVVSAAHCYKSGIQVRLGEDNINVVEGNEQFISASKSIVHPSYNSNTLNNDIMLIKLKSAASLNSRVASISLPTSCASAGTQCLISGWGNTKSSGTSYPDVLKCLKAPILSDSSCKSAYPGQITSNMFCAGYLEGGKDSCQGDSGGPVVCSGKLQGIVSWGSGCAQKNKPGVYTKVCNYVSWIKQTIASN
Experimental: as §1, §2

[4] = target: T3, Human plasmin (Homo sapiens, UniProt P00747); test: Serine protease inhibition (Kass), plasmin
T3 construct: Human plasmin is purchased from Boehringer Mannheim; purchased Boehringer Mannheim, Indianapolis, Ind
Experimental: as §1
(§3) Human plasmin is purchased from Boehringer Mannheim, Indianapolis, Ind.; nt-PA is purchased as single chain activity reference from American Diagnostica, Greenwich, Conn.; modified-t-PA6 (mt-PA6) is prepared at Eli Lilly and Company by procedure known in the art (See, Burck, et al., J. Biol. Chem., 265, […] (1990). Plasmin chromogenic substrate H-D-Val-Leu-Lys-p-nitroanilide and tissue plasminogen activator (t-PA) substrate H-D-Ile-Pro-Arg-p-nitroanilide are purchased from Kabi Vitrum, Stockholm, Sweden.

[5] = target: T4, tissue plasminogen activator (t-PA) (Homo sapiens, UniProt P00750); test: Serine protease inhibition (Kass), t-PA
T4 construct: purchased American Diagnostica, Greenwich, Conn
Experimental: as §1, §3

[6] = system: human plasma; test: Human plasma anticoagulation, thrombin time (TT)
Experimental: (§4) Fibrinogen is prepared from in-date ACD human blood as the fraction I-2 according to previous procedures and specifications. Smith, Biochem. […] Coagulation reagents ACTIN, Thromboplastin, and Human plasma are from Baxter Healthcare Corp., Dade Division, Miami, Fla. Bovine thrombin from Parke-Davis (Detroit, Mich.) is used for coagulation assays in plasma. Coagulation assay procedures are as previously described. […] A CoAScreener coagulation instrument (American LABor, Inc.) is used for all coagulation assay measurements. […] The compounds of formula I are added to human or animal plasma over a wide range of concentrations to determine prolongation effects on the APTT, PT, and TT assays. Linear extrapolations are performed to estimate the concentrations required to double the clotting time for each assay.

[7] = system: human plasma; test: Human plasma anticoagulation, activated partial thromboplastin time (APTT)
Experimental: as §4

[8] = system: human plasma; test: Human plasma anticoagulation, prothrombin time (PT)
Experimental: as §4

T3 sequence (P00747 581-810 limits assumed): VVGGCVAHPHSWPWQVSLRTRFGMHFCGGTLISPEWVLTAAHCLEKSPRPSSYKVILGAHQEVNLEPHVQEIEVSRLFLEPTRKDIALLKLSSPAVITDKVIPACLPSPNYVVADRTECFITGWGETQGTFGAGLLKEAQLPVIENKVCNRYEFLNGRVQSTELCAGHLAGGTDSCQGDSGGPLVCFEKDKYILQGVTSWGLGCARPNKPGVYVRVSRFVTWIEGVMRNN
T3 sequence (P00747 97-580 partner limits assumed): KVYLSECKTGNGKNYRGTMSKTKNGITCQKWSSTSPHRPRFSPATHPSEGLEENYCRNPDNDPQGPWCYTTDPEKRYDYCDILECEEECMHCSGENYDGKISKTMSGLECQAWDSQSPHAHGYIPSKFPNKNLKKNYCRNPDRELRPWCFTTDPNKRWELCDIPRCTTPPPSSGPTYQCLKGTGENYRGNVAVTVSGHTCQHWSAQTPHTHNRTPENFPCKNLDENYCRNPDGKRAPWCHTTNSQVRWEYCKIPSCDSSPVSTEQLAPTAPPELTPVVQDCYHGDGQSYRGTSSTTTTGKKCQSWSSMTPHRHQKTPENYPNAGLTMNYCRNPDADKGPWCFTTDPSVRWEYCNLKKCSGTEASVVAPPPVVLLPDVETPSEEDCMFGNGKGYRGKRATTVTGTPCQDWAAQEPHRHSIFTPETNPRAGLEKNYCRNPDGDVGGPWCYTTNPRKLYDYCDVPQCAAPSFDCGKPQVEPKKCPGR
T4 sequence (P00750 36-562): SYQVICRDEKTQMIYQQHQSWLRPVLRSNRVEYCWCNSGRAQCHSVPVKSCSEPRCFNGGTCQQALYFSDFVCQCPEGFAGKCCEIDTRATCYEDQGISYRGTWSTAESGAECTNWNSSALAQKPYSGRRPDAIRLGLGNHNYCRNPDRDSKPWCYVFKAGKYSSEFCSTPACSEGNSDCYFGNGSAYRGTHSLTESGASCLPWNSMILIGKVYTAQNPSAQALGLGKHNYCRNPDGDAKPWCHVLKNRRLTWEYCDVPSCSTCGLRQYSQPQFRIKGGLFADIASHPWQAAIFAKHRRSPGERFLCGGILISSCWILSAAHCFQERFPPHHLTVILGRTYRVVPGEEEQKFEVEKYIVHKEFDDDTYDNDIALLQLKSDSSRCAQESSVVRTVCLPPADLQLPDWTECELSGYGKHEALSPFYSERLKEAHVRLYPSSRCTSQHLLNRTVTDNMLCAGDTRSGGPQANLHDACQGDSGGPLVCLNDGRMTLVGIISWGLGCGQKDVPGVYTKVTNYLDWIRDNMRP
T1 sequence (P00742 235-488 limits assumed): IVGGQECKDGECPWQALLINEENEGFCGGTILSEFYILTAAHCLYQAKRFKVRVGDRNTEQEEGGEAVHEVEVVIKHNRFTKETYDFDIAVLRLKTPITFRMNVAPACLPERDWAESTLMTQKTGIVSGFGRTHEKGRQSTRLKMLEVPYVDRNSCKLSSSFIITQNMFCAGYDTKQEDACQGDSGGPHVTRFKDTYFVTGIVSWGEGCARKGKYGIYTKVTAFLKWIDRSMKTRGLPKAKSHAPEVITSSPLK
T1 sequence (P00742 41-179 partner limits assumed): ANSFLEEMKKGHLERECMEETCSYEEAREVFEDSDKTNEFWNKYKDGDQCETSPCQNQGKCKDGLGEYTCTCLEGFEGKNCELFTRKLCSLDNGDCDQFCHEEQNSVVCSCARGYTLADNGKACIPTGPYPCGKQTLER

Row | SMILES | Kass Human Thrombin [1] [L/mol × 10^6] | Kass Xa [2] [L/mol × 10^6] | Kass Trypsin [3] [L/mol × 10^6] | Kass Plasmin [4] [L/mol × 10^6] | Kass t-PA [5] [L/mol × 10^6] | 2 × Clotting time TT [6] [ng/mL] | 2 × Clotting time APTT [7] | 2 × Clotting time PT [8]
1 | Cl.N=C(N)NCCC[C@@H](C=O)NC(=O)[C@@H]1CCCN1C(=O)[C@@H](CC1CCCCC1)NC(=O)c1cc2ccccc2cn1 [Example 50, N-(isoquinolinyl-2-carbonyl)-D-cyclohexylalanyl-L-Prolinyl-L-Arginine Aldehyde Hydrochloride] | 200 | 0.83 | 2.5 | 2.5 | 0.088 | 97 | 1,400 ng/mL | 2,700 ng/mL
2 | CCCC[C@](Cc1ccccc1)(NC(=O)OCC)C(=O)N1CCC[C@H]1C(=O)N[C@H](C=O)CCCNC(=N)N.Cl [Example 39, N-ethoxycarbonyl-D-phenylalanyl(αn-butyl)-L-prolinyl-L-arginine aldehyde hydrochloride] | 66 | 0.095 | 21 | 0.066 | < 0.001 | 160 | 3,400 ng/mL | 3,000 ng/mL
3 | Cl.Cl.N=C(N)NCCC[C@@H](C=O)NC(=O)[C@@H]1CCCN1C(=O)[C@@]1(Cc2ccccc2)CCCN1.O.O [Example 24, D-Prolinyl (αbenzyl)-L-Prolinyl-L-arginine aldehyde, dihydrochloride dihydrate] | 12 | 0.13 | 14 | 0.31 | 0.0034 | 160 | 2,100 ng/mL | 3,600 ng/mL
4 | CCS(=O)(=O)N[C@@H](C(=O)N1CCC[C@H]1C(=O)N[C@H](C=O)CCCNC(=N)N)C1CCCCC1.Cl [Example 66, N-(ethylsulfonyl)-D-cyclohexylglycinyl-L-Prolinyl-L-Arginine Aldehyde Hydrochloride] | 260 | 24 | 260 | 13 | 0.11 | 46 | 330 ng/mL | 1,100 ng/mL
5 | Cc1noc(C)c1S(=O)(=O)N[C@H](Cc1ccccc1)C(=O)N1CCC[C@H]1C(=O)N[C@H](C=O)CCCNC(=N)N.Cl [Example 60, N-(3,5-dimethyl-4-isoxazolylsulfonyl)-D-phenylalanyl-L-Prolinyl-L-Arginine Aldehyde Hydrochloride] | 260 | 11 | 200 | 18 | 2.7 | 33 | 430 ng/mL | 1,300 ng/mL
6 | CCOC(=O)NC(CC)(Cc1ccccc1)C(=O)N1CCC[C@H]1C(=O)N[C@H](C=O)CCCNC(=N)N.Cl (stereo partly drawn) [Example 36, N-ethoxycarbonylphenylalanyl(αethyl)-L-prolinyl-L-arginine aldehyde hydrochloride] | 6.5 | 0.078 | 4.7 | 0.058 | 0.001 | 310 | 5,000 ng/mL | 7,100 ng/mL
7 | Cl.Cl.N=C(N)NCCC[C@@H](C=O)NC(=O)[C@@H]1CCCN1C(=O)C1(Cc2ccccc2)CCN1 (stereo partly shown) [Example 26] | 75 | 0.12 | 17 | 0.17 | 0.0028 | 42 | 1,400 ng/mL | 1,100 ng/mL
8 | CCS(=O)(=O)N[C@H](Cc1ccccc1)C(=O)N1CCC[C@@]1(C)C(=O)N[C@H](C=O)CCCNC(=N)N.Cl [Example 28, N-ethylsulfonyl-D-Phenylalanyl(α-methyl)-L-prolinyl-L-arginine aldehyde hydrochloride] | 24 | 0.11 | 20 | 0.31 | 0.051 | 100 | 1,600 ng/mL | 2,400 ng/mL
9 | CCNC(=O)N[C@H](Cc1ccccc1)C(=O)N1CCC[C@H]1C(=O)N[C@H](C=O)CCCNC(=N)N.Cl [Example 76, N-(ethylaminocarbonyl)-D-phenylalanyl-L-Prolinyl-L-Arginine Aldehyde Hydrochloride] | 25 | 0.21 | 60 | 2.0 | 0.54 | 63 | 1,100 ng/mL | 1,700 ng/mL
10 | Cl.Cl.N=C(N)NCCC[C@@H](C=O)NC(=O)[C@]1(Cc2ccccc2)CCCN1C(=O)[C@@H]1CCCN1 [Example 25, Prolinyl (αbenzyl)-L-Prolinyl-L-Arginine Aldehyde Dihydrochloride] | 350 | 0.27 | 43 | 0.77 | 0.0045 | 28 | 960 ng/mL | 1,400 ng/mL
11 | CCC[C@](Cc1ccccc1)(NC(=O)OCC)C(=O)N1CCC[C@H]1C(=O)N[C@H](C=O)CCCNC(=N)N.Cl [Example 37] | 47 | 0.030 | 4.9 | 0.12 | < 0.001 | 71 | 4,100 ng/mL | 2,800 ng/mL
